Source: patent US10543223B2, “Mannose derivatives useful for treating pathologies associated with adherent E. coli” (ENTEROME, priority 2015, dated 2020)
Where “and” joins values, the source holds several entries; their conditions need not be identical. Equal values may be shown once. Read-outs that look alike come from different tables or passages of the source.

Experiments:
[1] = system: uropathogenic E. coli strain UTI89; assay: Hemagglutination inhibition assay, guinea pig erythrocytes, E. coli strain UTI89; type: cell-based; conditions: Escherichia coli, read-out: MIC of haemagglutination
Method: (§1) Interaction of E. coli FimH adhesins with the glycocalyx of guinea pig erythrocytes forms a crosslinked network in the wells. Glycoconjugates, added in a 2-fold dilution series, prevent the agglutination reaction. The inhibition titer is defined as the lowest concentration of the glycoconjugate at which hemagglutination is still inhibited. Several strains of E. coli were grown statically overnight in LB at 37° C., washed three times in ice-cold phosphate-buffered saline, and redissolved. A 2-fold dilution of glycoconjugates with a starting concentration of 1 mM was prepared in 25 μL of PBS with 10% of DMSO. Importantly, the pipet tip was changed at every dilution step to avoid carry-over. Next, the bacterial solution (25 μL) was added to the 2-fold dilution series of the compound. Finally, 50 μL of guinea pig red blood cells, washed and diluted in the buffer to 5% of the blood volume, was added to reach 100 μL. The plates were left on ice for one night before read-out.
Inhibition of E. coli Strain UTI89 Isolated from Patient with Urinary Tract Infection.
(§2) The anti-adhesive capacity of the inhibitors was evaluated against ten E. coli strains isolated from CD patients, urinary tract infections, and hip prosthesis infections.

LF82 = assay: Hemagglutination inhibition assay, guinea pig erythrocytes, E. coli strain LF82; type: cell-based; conditions: Escherichia coli, read-out: MIC of haemagglutination
Method: as §1, §2

[2] = Plasma concentrations and pharmacokinetics after IV and PO administration to rats; type: in vivo, Sprague Dawley rats; conditions: for % AUCextra / AUC(0-inf) / AUC(0-t) / Cmax / Tmax: DMSO, based on mean data
Method: Plasma and faeces concentrations after administration of Compound 1b and for compound 13 of WO 2014/016361 at 1 mg/kg by intravenous route and 10 mg/kg by oral route to Sprague Dawley rats
At least 8 point calibration standards are run using standard conditions which consist to LC-MS/MS system with C18 column after precipitation of proteins with acetonitrile before the start of the analytical test.
For the plasma, 100 μL of blank rat plasma are directly spiked with the compounds before being precipitate with 300 μL of acetonitrile.
The concentration ranges tested are: • 0.5 ng/mL to 1000 ng/mL for plasma, • 4 to 2000 ng/g for faeces, corresponding to 1 to 500 ng/mL of faeces homogenate. 3. In-Life Part
12 male Sprague Dawley rats around 6-7 week old are used.
At prescribed times, blood is collected. Animals are briefly anaesthetised with Isoflurane® using an anaesthetic system (Équipement Vétérinaire Minerve) during blood samplings.
Blood samples are centrifuged at 2500 rpm at +4° C. (between 0 and 9° C.), the plasma is removed and placed into labelled polypropylene tubes. Individual plasma samples are stored frozen at −20° C. (target temperature) until analysis.
100 μL of the plasma sample are taken and 300 μL of acetonitrile are added. After protein precipitation, analysis is performed using LC-MS/MS determination according to previous analytical test results.
Concentrations of the samples are calculated directly from chromatograms after automatic integration by Analyst® 1.5.1 and expressed as ng/mL.
Mean plasma concentrations are calculated (when calculable, i.e. n≥2) using individual concentration and are expressed with the corresponding standard deviation value and variation coefficient (when calculable, i.e. n≥3), with
[formula] The individual plasma concentrations are tabulated for each rat and scheduled sampling time. Concentrations below the LLOQ are indicated by BLQ. All BLQ concentrations are substituted by zero for calculation of the descriptive statistics of the concentrations. 5. Results Estimation of pharmacokinetics parameters is performed using Kinetica® (Version 4.3—Thermo Electron Corporation—Philadelphia—USA). It was performed by using a one-compartment model approach, which considers the body as a single compartment in which the concentration is homogeneous. The following parameters are estimated: Cmax (ng/mL): maximal plasma concentration Tmax (h): first time to reach Cmax AUCt (ng/mL*h): area under the plasma concentration-time curve from administration up to the last quantifiable concentration at time t
[formula] “BLQ” stands for “Below the Limit of Quantification” ([…] for plasma). Compound 1b

[3] = Faeces concentrations and recovery after IV and PO administration to rats; type: in vivo, Sprague Dawley rats; conditions: 0-24 h; for dose excreted: Sprague Dawley, rat, faeces
Method: Plasma and faeces concentrations after administration of Compound 1b and for compound 13 of WO 2014/016361 at 1 mg/kg by intravenous route and 10 mg/kg by oral route to Sprague Dawley rats Blank rat faeces are homogenized with 3 volumes of UHQ water until obtention of a paste. Then 100 μL of the homogenate are spiked with the molecules and precipitated with 300 μL of acetonitrile. The concentration ranges tested are: • 0.5 ng/mL to 1000 ng/mL for plasma, • 4 to 2000 ng/g for faeces, corresponding to 1 to 500 ng/mL of faeces homogenate. 3. In-Life Part After administration, the animals are placed in individual metabolic cages in order to collect faeces samples during 24 hours. Faeces samples are collected over the 24 hours of the experiment. They are precisely weighed and 3 volumes of UHQ water are added. The mixture is homogeneized until obtention of a paste. Then 100 μL of the homogenate are taken and extracted with 300 μL of Acetonitrile. Analysis is performed using LC-MS/MS determination according to previous analytical test results.

[4] = male, Sprague Dawley, rat, plasma, IV 1 mg/kg
[5] = male, Sprague Dawley, rat, plasma, PO 10 mg/kg
[6] = IV 1 mg/kg, individual rats IV1-IV3, 1 mg/kg
[7] = PO 10 mg/kg, individual rats PO4-PO6, 10 mg/kg

Question: What does the source list for `Cc1nc(-c2cnccn2)sc1C(=O)c1cnc(C[C@H]2O[C@H](CO)[C@@H](O)[C@H](O)[C@@H]2O)s1` [Compound 1b, 5-(4-methyl-2-(pyrazin-2-yl)thiazole-5-carbonyl) 2-((-α-D-mannopyranos-1-yl)methyl)thiazole]?
Answer: MIC [1]: 6 µM; MIC (LF82): 0.024 µM; Plasma concentration ([2]; IV 1 mg/kg, 0.083 h, individual rats IV1-IV3, 1 mg/kg): 470.2 ng/mL and 908.7 ng/mL; Plasma concentration ([2]; IV 1 mg/kg, 0.5 h, individual rats IV1-IV3, 1 mg/kg): 108.2 ng/mL and 66.5 ng/mL; Plasma concentration ([2]; IV 1 mg/kg, 2 h, individual rats IV1-IV3, 1 mg/kg): BLQ; Plasma concentration ([2]; IV 1 mg/kg, 6 h, individual rats IV1-IV3): BLQ; Plasma concentration ([2]; IV 1 mg/kg, 24 h, individual rats IV1-IV3): BLQ; % AUCextra ([2]; IV 1 mg/kg): 0.35%; Plasma concentration ([2]; PO 10 mg/kg, 0.5 h, individual rats PO4-PO6, 10 mg/kg): 8.1 ng/mL and 6.5 ng/mL; Plasma concentration ([2]; PO 10 mg/kg, 1 h, individual rats PO4-PO6, 10 mg/kg): 6.5 ng/mL and BLQ; Plasma concentration ([2]; PO 10 mg/kg, 2 h, individual rats PO4-PO6, 10 mg/kg): BLQ and 5.2 ng/mL; Plasma concentration ([2]; PO 10 mg/kg, 6 h, individual rats PO4-PO6): BLQ; Plasma concentration ([2]; PO 10 mg/kg, 24 h, individual rats PO4-PO6): BLQ; % AUCextra ([2]; PO 10 mg/kg): 53.8%; concentration at 0.083 h ([2]; male, Sprague Dawley, rat, plasma, iv, 1 mg/kg, IV 1 mg/kg, 0.083 h, individual rats IV1-IV3, read-out: Plasma concentration): 573 ng/mL; concentration at 0.083 h ([2]; male, Sprague Dawley, rat, plasma, iv, 1 mg/kg, IV 1 mg/kg, 0.083 h, mean of 3 rats (BLQ = 0), read-out: Plasma concentration, mean): 650 ng/mL; concentration at 0.5 h ([2]; male, Sprague Dawley, rat, plasma, iv, 1 mg/kg, IV 1 mg/kg, 0.5 h, individual rats IV1-IV3, read-out: Plasma concentration): 59.6 ng/mL; concentration at 0.5 h ([2]; male, Sprague Dawley, rat, plasma, iv, 1 mg/kg, IV 1 mg/kg, 0.5 h, mean of 3 rats (BLQ = 0), read-out: Plasma concentration, mean): 78.1 ng/mL; concentration at 2 h ([2]; male, Sprague Dawley, rat, plasma, iv, 1 mg/kg, IV 1 mg/kg, 2 h, individual rats IV1-IV3, read-out: Plasma concentration): 7.7 ng/mL; concentration at 2 h ([2]; male, Sprague Dawley, rat, plasma, iv, 1 mg/kg, IV 1 mg/kg, 2 h, mean of 3 rats (BLQ = 0), read-out: Plasma concentration, mean): 2.6 ng/mL; concentration at 6 h ([2]; male, Sprague Dawley, rat, plasma, iv, 1 mg/kg, IV 1 mg/kg, 6 h, mean of 3 rats (BLQ = 0), read-out: Plasma concentration, mean): 0 ng/mL; concentration at 24 h ([2]; male, Sprague Dawley, rat, plasma, iv, 1 mg/kg, IV 1 mg/kg, 24 h, mean of 3 rats (BLQ = 0)): 0 ng/mL; concentration at 0.5 h ([2]; male, Sprague Dawley, rat, plasma, po, 10 mg/kg, PO 10 mg/kg, 0.5 h, individual rats PO4-PO6, read-out: Plasma concentration): 6.7 ng/mL; concentration at 0.5 h ([2]; male, Sprague Dawley, rat, plasma, po, 10 mg/kg, PO 10 mg/kg, 0.5 h, mean of 3 rats (BLQ = 0), read-out: Plasma concentration, mean): 7.1 ng/mL; concentration at 1 h ([2]; male, Sprague Dawley, rat, plasma, po, 10 mg/kg, PO 10 mg/kg, 1 h, individual rats PO4-PO6, read-out: Plasma concentration): 5.5 ng/mL; concentration at 1 h ([2]; male, Sprague Dawley, rat, plasma, po, 10 mg/kg, PO 10 mg/kg, 1 h, mean of 3 rats (BLQ = 0), read-out: Plasma concentration, mean): 4 ng/mL; concentration at 2 h ([2]; male, Sprague Dawley, rat, plasma, po, 10 mg/kg, PO 10 mg/kg, 2 h, individual rats PO4-PO6, read-out: Plasma concentration): 6 ng/mL; concentration at 2 h ([2]; male, Sprague Dawley, rat, plasma, po, 10 mg/kg, PO 10 mg/kg, 2 h, mean of 3 rats (BLQ = 0), read-out: Plasma concentration, mean): 3.7 ng/mL; concentration at 6 h ([2]; male, Sprague Dawley, rat, plasma, po, 10 mg/kg, PO 10 mg/kg, 6 h, mean of 3 rats (BLQ = 0), read-out: Plasma concentration, mean): 0 ng/mL; concentration at 24 h ([2]; male, Sprague Dawley, rat, plasma, po, 10 mg/kg, PO 10 mg/kg, 24 h, mean of 3 rats (BLQ = 0)): 0 ng/mL; AUC(0-inf) [2, 4]: 267 ng·h/mL; AUC(0-t) [2, 4]: 266 ng·h/mL; Cmax [2, 4]: 651 ng/mL; Tmax [2, 4]: 4.8 min; bioavailability ([2]; male, Sprague Dawley, rat, plasma, PO 10 mg/kg vs IV 1 mg/kg, calculated based on AUCt, read-out: F (bioavailability)): 0.3%; AUC(0-t) [2, 5]: 8 ng·h/mL; Cmax [2, 5]: 7.07 ng/mL; Tmax [2, 5]: 30 min; AUC(0-inf) ([2]; male, Sprague Dawley, rat, plasma, PO 10 mg/kg, % AUC extra >20%: value given for indication): 18.2 ng·h/mL; Faeces concentration [3, 6]: 3557 ng/g and 6433 ng/g and 2274 ng/g; Faeces concentration (homogenate) [3, 6]: 889 ng/mL and 1608 ng/mL and 569 ng/mL; Recovery in faeces [3, 6]: 9.2% and 6.8%; Total amount of compound in faeces [3, 6]: 25318 ng and 22175 ng and 19840 ng; Faeces concentration (homogenate), mean ([3]; IV 1 mg/kg, mean of 3 rats): 1022 ng/mL; Faeces concentration, mean ([3]; IV 1 mg/kg, mean of 3 rats): 4088 ng/g; Total amount of compound in faeces, mean ([3]; IV 1 mg/kg, mean of 3 rats): 22445 ng; Faeces concentration [3, 7]: 146214 ng/g and 115495 ng/g and 146982 ng/g; Faeces concentration (homogenate) [3, 7]: 36553 ng/mL and 28874 ng/mL and 36745 ng/mL; Recovery in faeces [3, 7]: 41.6% and 45.1%; Total amount of compound in faeces [3, 7]: 1335427 ng and 1081683 ng and 1171915 ng; Faeces concentration (homogenate), mean ([3]; PO 10 mg/kg, mean of 3 rats): 34058 ng/mL; Faeces concentration, mean ([3]; PO 10 mg/kg, mean of 3 rats): 136230 ng/g; Total amount of compound in faeces, mean ([3]; PO 10 mg/kg, mean of 3 rats): 1196341 ng; dose excreted ([3]; iv, 1 mg/kg, IV 1 mg/kg, individual rats IV1-IV3, read-out: Recovery in faeces): 10.5%; dose excreted ([3]; iv, 1 mg/kg, IV 1 mg/kg, mean of 3 rats, read-out: Recovery in faeces, mean): 8.9%; dose excreted ([3]; po, 10 mg/kg, PO 10 mg/kg, individual rats PO4-PO6, read-out: Recovery in faeces): 55.6%; dose excreted ([3]; po, 10 mg/kg, PO 10 mg/kg, mean of 3 rats, read-out: Recovery in faeces, mean (quantity found in faeces out of the administered quantity)): 47.4%
